Where two headings read alike, the source gives them in different places.
Biological target: T1, Dihydrofolate reductase (DHFR) (Escherichia coli, UniProt P0ABQ4)
T1 construct: gift of Professor Eric Brown (McMaster University)
Type: binding, E. coli
Conditions: for retention (elution) time: FIG. 19 Panel B, column with 50 pmol DHFR initial loading, compounds infused at 20 nM, fluorescein 100 nM; for elution time: first run
Description: A second aqueous solution of 50 mM HEPES at pH 7.5 was prepared containing 16% (w/v) PEO (MW=10 000) and 0.6% (v/v) APTES. This aqueous solution also contained ca. 20 μM of DHFR. […] The mixture underwent spinodal decomposition (phase separation) in about 2-3 min followed by silica polymerization (˜10 min) to generate a hydrated macroporous monolithic column containing entrapped protein. After loading the sol-gel mixture, the monolithic columns were aged for a minimum of 5 days at 4 C and then cut into 10 cm lengths before use. In some cases, the APTES present in the columns was replaced with a final concentration of either 0.03% polyallylamine (PAM, MW 17,000) or 0.3% dimethyldimethoxysilane (DMDMS) to examine the effects of surface derivatization on non-selective retention.
Syringe pumps (Harvard Instruments PhD 2000) were used to deliver solutions, and a flow-switching valve was used to toggle between the assay buffer and the solution containing the compound mixture. This solution was then pumped through the column to achieve equilibrium. Effluent was combined with suitable organic modifiers to assist in the generation of a stable electrospray and detectability of the sprayed components using a triple-quadrupole MS system (Sciex API 3000). This configuration allows for maximum flexibility in compound introduction. Full operation of FAC-MS methods requires frequent flow switching between two solutions connected to the head of the column. An Upchurch microinjection valve allows syringe contents to be exchanged during operation. […] All other connections between components were achieved using fused silica tubing.
Before the first run, the column was flushed with 0.05 M NH4OAc buffer (pH 6.6, 100 mM NaCl) for 30 min at different flow rates (from 1 to 5 μL.min^−1) to remove any glycerol and non-entrapped protein and then equilibrated with 2 mM NH4OAc for 30 min at different flow rates (from 1 to 5 μL.min^−1). All compounds tested were present in 2 mM NH4OAc and were delivered at a rate of 5 μL.min^−1 using the syringe pump. The makeup flow (used to assist in the generation of a stable electrospray) consisted of methanol containing 10% (v/v) NH4OAc buffer (2 mM) and was delivered at 5 μL.min^−1.
In each case, the data were fit to the following equation:^17 [formula]
where V0 is the void volume (μL), V is the retention volume (μL), [A] is the analyte concentration (μM), Kd is the binding constant of the ligand to the protein (μM) and Bt is the total picomoles of active protein in the column.

[1] = FIG. 21 Panel A, in 2 mM ammonium acetate
[2] = FIG. 21 Panel B, second column cut from the same capillary, same infusion

| Structure (SMILES) | retention (elution) time [min] | elution time [1] [min] | elution time [2] [min] |
| --- | --- | --- | --- |
| O=c1ccc2ccccc2o1 [coumarin] | 2 | 2.7 | 2.6 |
| Nc1nc2ncc(CNc3ccc(C(=O)N[C@@H](CCC(=O)O)C(=O)O)cc3)nc2c(=O)[nH]1 [folic acid] | 7 | 8.9 | 8.4 |

— patent publication US20040211730A1, “Methods and compounds for controlling the morphology and shrinkage of silica derived from polyol-modified silanes” (priority 2002, published 2004)
